Assay results: US20110245242A1, “Heterocyclically Substituted Anilinopyrimides” (Bayer CropScience AG, priority 2008, published 2011)

How the values were obtained:
[1] = log P by LC-MS, method [b], acid range pH 2.7; format: physicochemical
Description: The log P values were measured in accordance with EEC Directive 79/831 Annex V.A8 by HPLC (High Performance Liquid Chromatography) on reversed-phase columns (C 18) using the methods below:
[b] The LC-MS determination in the acid range was carried out at pH 2.7 using the mobile phases 0.1% aqueous formic acid and acetonitrile (contains 0.1% formic acid)
linear gradient from 10% acetonitrile to 95% acetonitrile.

Fusarium proliferatum = experiment: Production of Fumonisin FB1 by Fusarium proliferatum (microtitre plates; FB1 by HPLC-MS/MS, growth by OD620); format: cell-based; conditions: for pI50 growth: OD620 at the beginning and after 6 days; for pI50 Fum: FB1 concentration in liquid medium after 6 days at 20° C., HPLC-MS/MS
[2] = log P by HPLC on reversed-phase columns (C 18), method [a], acidic range pH 2.3; format: physicochemical; conditions: for log P (pH 2.3) / log p: pH 2.3; for chromatographic logP: pH 2.3, log P (pH 2.3)
Description: The log P values were measured in accordance with EEC Directive 79/831 Annex V.A8 by HPLC (High Performance Liquid Chromatography) on reversed-phase columns (C 18) using the methods below: [a] The determination was carried out in the acidic range at pH 2.3 using the mobile phases 0.1% aqueous phosphoric acid and acetronitrile linear gradient from 10% acetonitrile to 95% acetronitrile.

physchem = format: physicochemical; conditions: pH 7.8
Description: The log P values were measured in accordance with EEC Directive 79/831 Annex V.A8 by HPLC (High Performance Liquid Chromatography) on reversed-phase columns (C 18) using the methods below: [c] The LC-MS determination in the neutral range was carried out at pH 7.8 using the mobile phases 0.001 molar aqueous ammonium bicarbonate solution and acetonitrile linear gradient from 10% acetonitrile to 95% acetonitrile.

Compound | pI50 growth (Fusarium proliferatum) | log p ([1]; pH 2.7) | pI50 Fum (Fusarium proliferatum) | log p [2] | log p (physchem) | other results
1-(3-{[4-(Cyclopropylamino)-5-(trifluoromethyl)pyrimidin-2-yl]amino}phenyl)pyrrolidin-2-one [Example 236] | 4.9 | – | – | – | – | log p ([1]; method [b], LC-MS, acid range pH 2.7): 1.49[b]; log P (pH 2.3) [2]: 1.49
CC1COC(=O)N1c1cccc(Nc2ncc(C(F)(F)F)c(NC3CC3)n2)c1 (stereo not shown) [Example 19] | – | 2.4[b] | 6.2 | – | – | –
CC1(C)CC(=O)N(c2cccc(Nc3ncc(Cl)c(NC4CC4)n3)c2)C1=O [Example 25] | 5.6 | – | 6.3 | 1.83[a] | – | –
CC1CCN(c2cccc(Nc3ncc(Br)c(NC4CCC4)n3)c2)C1=O (stereo not shown) [Example 27] | 5.6 | 2.09[b] | 6.2 | 2.24[a]; | – | –
CC1(C)CC(=O)N(c2cccc(Nc3ncc(Br)c(NC4CC4)n3)c2)C1=O [Example 28] | – | 1.99[b] | 6.2 | – | – | –
CCC1COC(=O)N1c1cccc(Nc2ncc(Cl)c(NC3CC3)n2)c1 (stereo not shown) [Example 31] | 5.7 | – | 6.3 | 1.86[a] | – | –
CC1CCC(=O)N1c1cccc(Nc2ncc(Br)c(NC3CCC3)n2)c1 (stereo not shown) [Example 36] | 5.3 | 1.97[b] | 6.2 | – | – | –
CC1COC(=O)N1c1cccc(Nc2ncc(Br)c(NC3CCC3)n2)c1 (stereo not shown) [Example 56] | 5.6 | – | 6.2 | 1.97[a] | – | –
CC1CCC(=O)N1c1cccc(Nc2ncc(Br)c(NC3CC3)n2)c1 (stereo not shown) [Example 60] | 5.5 | 1.72[b] | 6.3 | 1.72[a]; | – | –
CC1(C)CC(=O)N(c2cccc(Nc3ncc(C(F)(F)F)c(NC4CC4)n3)c2)C1=O [Example 62] | 5.7 | – | 6.2 | 2.63[a] | – | –
CC1(C)CC(=O)N(c2cccc(Nc3ncc(Br)c(NC4CCC4)n3)c2)C1=O [Example 63] | 5.7 | – | 6.6 | 2.19[a] | – | –
CC1CC(=O)N(c2cccc(Nc3ncc(Cl)c(NC4CC4)n3)c2)C1=O (stereo not shown) [Example 65] | 5.7 | 1.59[b] | 6.2 | – | – | –
CC1CC(=O)N(c2cccc(Nc3ncc(Br)c(NC4CCC4)n3)c2)C1=O (stereo not shown) [Example 73] | 5.8 | 1.9[b] | 6.4 | – | – | –
CC(C)[C@H]1COC(=O)N1c1cccc(Nc2ncc(Cl)c(NC3CC3)n2)c1 [Example 76] | 5.6 | 2.47[b] | 6.2 | – | – | –
CN(c1nc(Nc2cccc(N3C(=O)CCC3CO)c2)ncc1Cl)C1CC1 (stereo not shown) [Example 82] | – | – | – | 1.54[a]; | 2.06[c] | –
CC1CC(C)N(c2cccc(Nc3ncc(Br)c(NC4CC4)n3)c2)C1=O (stereo not shown) [Example 84] | – | 2.01[b] | 6.3 | – | 2.91[c]; | –
C[C@H]1COC(=O)N1c1cccc(Nc2ncc(Cl)c(NC3CC3)n2)c1 [Example 92] | 5.7 | 1.54[b] | 6.6 | – | 2.42[c]; | –
O=C1C[C@@H](O)CN1c1cccc(Nc2ncc(Cl)c(NC3CC3)n2)c1 [Example 108] | – | – | – | 0.98[a]; | 1.68[c] | –
CC1COC(=O)N1c1cccc(Nc2ncc(Cl)c(NC3CC3(C)C)n2)c1 (stereo not shown) [Example 120] | – | 2.15[b] | – | 2.15[a]; | 3.12[c]; | –
CC1CC(=O)N(c2cccc(Nc3ncc(Cl)c(NC4CC4(C)C)n3)c2)C1=O (stereo not shown) [Example 121] | – | 2.13[b] | – | 2.13[a]; | 2.92[c]; | –
CC1(C)CC(=O)N(c2cccc(Nc3ncc(Cl)c(NC4CC4(C)C)n3)c2)C1=O (stereo not shown) [Example 122] | – | 2.42[b] | – | 2.42[a]; | 3.28[c]; | –
CC1(C)CC1Nc1nc(Nc2cccc(N3CCCC3=O)c2)ncc1Cl (stereo not shown) [Example 127] | – | 1.98[b] | – | 1.98[a]; | 2.99[c]; | –
CC1COC(=O)N1c1cccc(Nc2ncc(Br)c(NCC3CC3)n2)c1 (stereo not shown) [Example 131] | 5.3 | 1.75[b] | 6 | – | – | –
O=C1CCC(CO)N1c1cccc(Nc2ncc(Cl)c(NC3CC3)n2)c1 (stereo not shown) [Example 136] | – | – | – | 0.96[a]; | 1.6[c] | –

Compound | pI50 growth (Fusarium proliferatum) | log p ([1]; pH 2.7) | pI50 Fum (Fusarium proliferatum) | log p [2] | log p (physchem) | other results
COC(=O)C1CC(=O)N(c2cccc(Nc3ncc(Cl)c(NC4CC4)n3)c2)C1 (stereo not shown) [Example 137] | 5.1 | 1.52[b] | 5.7 | – | – | –
CC(C)Nc1nc(Nc2cccc(N3CCOC3=O)c2)ncc1Cl [Example 138] | 4.9 | 1.56[b] | 5 | – | – | –
CC(C)Nc1nc(Nc2cccc(N3C(=O)OCC3C)c2)ncc1Cl (stereo not shown) [Example 139] | 5 | 1.64[b] | 5 | – | – | –
CC(C)Nc1nc(Nc2cccc(N3C(=O)CC(C)(C)C3=O)c2)ncc1Cl [Example 140] | 5.2 | 1.81[b] | 5.7 | – | – | –
CC(C)Nc1nc(Nc2cccc(N3C(=O)C(C)CC3C)c2)ncc1Cl (stereo not shown) [Example 141] | 5 | 1.88[b] | 5.3 | – | 3.15[c]; | –
CC(C)Nc1nc(Nc2cccc(N3CCOC3=O)c2)ncc1Br [Example 146] | 5 | 1.63[b] | – | – | – | –
CC1COC(=O)N1c1cccc(Nc2ncc(Cl)c(NCC(F)(F)F)n2)c1 (stereo not shown) [Example 169] | 5.1 | 2.16[b] | 5.5 | – | – | –
CN(c1nc(Nc2cccc(N3C(=O)CC(C)(C)C3=O)c2)ncc1Cl)C1CC1 [Example 177] | 5.7 | 2.55[b] | 6.1 | – | – | –
CC1CC(C)N(c2cccc(Nc3ncc(Cl)c(N(C)C4CC4)n3)c2)C1=O (stereo not shown) [Example 178] | 4.9 | 2.61[b] | 5.7 | – | – | –
CC(=O)N(c1cccc(N2CCCC2=O)c1)c1ncc(Cl)c(NCC2CC2)n1 [Example 184] | – | 2.35[b] | – | – | 2.38[c]; | log P (pH 2.3) [2]: 2.35
CC1CCN(c2cccc(Nc3ncc(Br)c(NC4CC4)n3)c2)C1=O (stereo not shown) [Example 187] | 5.8 | 1.87[b] | 6.3 | – | 2.83[c]; | –
O=C1OCCN1c1cccc(Nc2ncc(C(F)(F)F)c(NC3CCC3)n2)c1 [Example 194] | 5.4 | 2.58[b] | 6.1 | – | – | –
CC1(C)CC(=O)N(c2cccc(Nc3ncc(C(F)(F)F)c(NCC4CC4)n3)c2)C1=O [Example 196] | 4.8 | 2.81[b] | 5.3 | – | – | –
CC1CC1Nc1nc(Nc2cccc(N3CCCC3=O)c2)ncc1Cl (stereo not shown) [Example 200] | 4.7 | 1.72[b] | 4.8 | – | – | –
CC1CC1Nc1nc(Nc2cccc(N3CCCC3=O)c2)ncc1C(F)(F)F (stereo not shown) [Example 219] | 5.5 | 2.79[b] | 6.3 | – | – | –
CC(Nc1nc(Nc2cccc(N3CCCC3=O)c2)ncc1C(F)(F)F)C(F)(F)F (stereo not shown) [Example 220, 1-[3-({5-(Trifluoromethyl)-4-[(1,1,1-trifluoropropan-2-yl)amino]pyrimidin-2-yl}amino)phenyl]-pyrrolidin-2-one] | – | – | – | – | – | chromatographic logP (physchem): 3.05; chromatographic logP ([1]; pH 2.7): 3.08; chromatographic logP [2]: 3.08
CCC1=C(C)CN(c2cccc(Nc3ncc(Cl)c(NC4CC4)n3)c2)C1=O [Example 224] | 5.3 | – | 6 | 2.2[a] | – | –
CC1CCN(Cc2cccc(Nc3ncc(Cl)c(N(C)C4CC4)n3)c2)C1=O (stereo not shown) [Example 233] | – | – | – | 2.5[a]; | 3.25[c] | –
CC1CCN(Cc2cccc(Nc3ncc(Cl)c(NC4CC4)n3)c2)C1=O (stereo not shown) [Example 234] | – | – | – | 1.7[a]; | 2.57[c] | –
COC1=CC(=O)N(c2cccc(Nc3ncc(Cl)c(NC4CC4)n3)c2)C1 [Example 237] | – | – | – | 1.55[a]; | 2.45[c] | –
COC1=CC(=O)N(c2cccc(Nc3ncc(Br)c(NC4CC4)n3)c2)C1 [Example 238] | – | – | – | 1.77[a]; | 2.65[c] | –
CN1CCN(c2cccc(Nc3ncc(Cl)c(NC4CC4(C)C)n3)c2)C1=O (stereo not shown) [Example 313] | – | 1.93[b] | – | 1.93[a]; | 3.06[c]; | –
CC(C)OC(=O)N(c1cccc(N2CCCC2=O)c1)c1ncc(Cl)c(NC2CC2)n1 [Example 329, Isopropyl [5-chloro-4-(cyclopropylamino)pyrimidin-2-yl][3-(2-oxopyrrolidin-1-yl)phenyl]carbamate] | – | – | – | – | – | chromatographic logP (physchem): 2.55; chromatographic logP ([1]; pH 2.7): 2.24; chromatographic logP [2]: 2.24
CCOC(=O)N(c1cccc(N2CCCC2=O)c1)c1ncc(Cl)c(NC2CC2)n1 [Example 330, Ethyl [5-chloro-4-(cyclopropylamino)pyrimidin-2-yl][3-(2-oxopyrrolidin-1-yl)phenyl]-carbamate] | – | – | – | – | – | chromatographic logP (physchem): 2.24; chromatographic logP ([1]; pH 2.7): 2.04; chromatographic logP [2]: 2.04
